The values below come from PMC3356326 (PLoS ONE, 2012).

In one series the test system is U87MG tumor-bearing mice. The experiment in a line: Logan graphical analysis with image-derived input function of 60-min dynamic PET: volumes of distribution. The class given is in vivo, mouse. To be noted: mean ± SD, n = 4/group. How it is done:
(§1) Dynamic PET data acquisition was performed using an Inveon microPET scanner (Siemens Medical Solutions). With the assistance of the Inveon system's positioning laser, U87MG tumor-bearing mouse was placed with its tumor located at the center of field of view (FOV), where the highest imaging sensitivity can be achieved. […] During the acquisition period, a thermostat-controlled thermal heater maintained the body temperature of mice. PET images were reconstructed with 2 iterations of 3-dimensional ordered-subsets expectation maximum (3D OSEM) with 14 subsets, followed by 18 iterations of maximum a posteriori (MAP) algorithm with a smoothing parameter of 0.1 (frame rates: 10×30 s, 5×60 s, 5×120 s and 10×240 s). No attenuation correction was performed in this study.
(§2) In the dynamic PET image analysis, regions of interest (ROIs) were measured with the Inveon Research Workplace (IRW) 3.0 software. ROI was determined by manually superimposing the ellipsoid volume of interest (VOI) to the target tissue on the last frame of the entire 60-min dynamic image sequence. Then a threshold of 30% maximum was set to screen the voxels with lower values in the entire VOI because of possible tumor heterogeneity and shape irregularity. The time–activity curves were derived by superimposing the same VOI on each time frame of the entire 60-min dynamic image sequence and the value of each time point represents the overall concentration of radioactivity in the tissue. The activity concentrations were determined by the mean pixel intensity within each VOI, which were converted to µCi/ml using a calibration constant. Assuming the tissue density of 1 g/ml, the ROI activity was converted to µCi/g and normalized as percent injected dose per gram (%ID/g). The tissue uptake quantification of static scan at 60 min was determined from the last frame of dynamic images. The arterial blood input function was estimated by drawing a VOI in the region of left ventricle on the reconstructed PET image at the 0.5 min time point (the second frame of dynamic PET image series). The region of muscle contralateral to the tumor was selected as the reference tissue.
Kinetic analysis of regional TACs was performed based on two-tissue (three-compartment) and one-tissue (two-compartment) model (Fig. 2). The three-compartment model consists of unmetabolized radiotracer in arterial blood plasma (Cp), free or non-specific binding tracer in interstitial and intracellular space (Ct), and tracer bound specifically to integrin (Cm). Both Ct and Cm occupy the same physical volume. The ROI(t) represents the sum of radioactivity from all compartments and includes the plasma volume fraction. Similarly, the two-compartment model describes RGD tracer kinetics using muscle as reference tissue and Ctref represents free (non-specific binding) tracer in the reference tissue (muscle) region. Generally speaking, kinetic parameters K1 [ml/g/min], k2 [1/min], k3 [1/min], k4 [1/min] represent the transport or binding rates of plasma perfusion into tissue, clearance from plasma, specific binding and dissociation, respectively.
Based on Logan plot shown in Eq. 1 [28], [33], the ratio between the integral of Cp(t) and the instantaneous value of ROI(t), and the ratio between the integral and the instantaneous value of ROI(t) become linearly related when the exchange between the target tissue and plasma reaches an equilibrium (t>t*). [drawing 1] (1) DV denotes the distribution volume and can be easily calculated from the linear regression. DV is a measure of the capacity of tissue to bind a particular tracer and can be regarded as the sum of specific (VS) and nonspecific distribution (VND). [drawing 2] (2) [drawing 3] (3) Total volume of distribution is defined in equation 4. [drawing 4] (4) K1, k2, k3, and k4 are calculated by linear fitting to 60-min dynamic PET data.

Series [1] can be described thus: Static PET image quantification of tissue uptake at 60 min (last frame of dynamic scan). Format: in vivo. To be noted: female, athymic nude, mouse, iv, 3.7 MBq, total radioactivity, tail-vein injection ~3.7 MBq, static PET image at 1 h, mean ± SD, n = 4/group. As to the method: The U87MG human glioblastoma tumor model, which has been documented to express high level of integrin αvβ3 [32], was selected for PET imaging. The U87MG cells obtained from ATCC (Manassas, VA) were cultured in DMEM medium supplemented with 10% fetal bovine serum (FBS), 100 IU/mL penicillin, and 100 µg/mL streptomycin (Invitrogen), and in a humidified atmosphere containing 5% CO2 at 37°C. The xenografted model was established by inoculation of 5×10^6 cells into the left shoulder of each female athymic nude mouse at 5–6 weeks of age (Harlan Laboratories). Tumor growth was monitored by caliper measurements of perpendicular axes of the tumor three times a week after the tumors are palpable. The tumor volume was determined as the formula: V = a×(b^2)/2, where a and b are the length and width of each tumor, respectively, in mm. The U87MG xenografted mice underwent PET imaging when the tumor volume reached about 300 mm^3 (about 3 weeks after inoculation). This study was approved by the NIH Clinical Center Animal Care and Use Committee (ACUC). Moreover, all mice were maintained in a specific pathogen-free facility in accordance with the requirements of the ACUC.
as §1, §2

The mark [2] stands for this setting: tumor (U87MG xenograft), U87MG xenograft, female athymic nude mice, read-out: Tissue uptake, Tumor.
The mark [3] stands for this setting: kidneys, U87MG tumor-bearing mice, read-out: Tissue uptake, Kidneys.
[4] abbreviates: liver, U87MG tumor-bearing mice, read-out: Tissue uptake, Liver.
Where [5] appears, read: muscle, U87MG tumor-bearing mice, read-out: Tissue uptake, Muscle.

Read-outs that look alike come from different tables or passages of the source.

As for `N=C(N)NCCC[C@@H]1NC(=O)[C@H](CCCCNC(=O)CC[C@H](NC(=O)COCCOCCOCCNC(=S)Nc2ccc(C[C@H]3CN(CC(=O)O)CCN(CC(=O)O)CCN3CC(=O)O)cc2)C(=O)NCCCC[C@@H]2NC(=O)[C@@H](Cc3ccc(O)cc3)NC(=O)[C@H](CC(=O)O)NC(=O)CNC(=O)[C@H](CCCNC(=N)N)NC2=O)NC(=O)[C@@H](Cc2ccc(O)cc2)NC(=O)[C@H](CC(=O)O)NC(=O)CNC1=O` [[^68Ga]Ga-NOTA-PRGD2] [metal not drawn], in the series with U87MG tumor-bearing mice, the “Volume of Distribution (VT), Kidneys” value came out at 3.37±0.56; the “Volume of Distribution (VT), Liver” value came out at 1.24±0.11; the “Volume of Distribution (VT), Muscle” value is 0.57±0.064; the “Volume of Distribution (VT), Tumor” value was 2.07±0.12.
Turning to `N=C(N)NCCC[C@@H]1NC(=O)[C@H](CCCCNC(=O)CC[C@H](NC(=O)COCCOCCOCCNC(=S)Nc2ccc(C[C@H]3CN(CC(=O)O)CCN(CC(=O)O)CCN3CC(=O)O)cc2)C(=O)NCCCC[C@@H]2NC(=O)[C@@H](Cc3ccc(O)cc3)NC(=O)[C@H](CC(=O)O)NC(=O)CNC(=O)[C@H](CCCNC(=N)N)NC2=O)NC(=O)[C@@H](Cc2ccc(O)cc2)NC(=O)[C@H](CC(=O)O)NC(=O)CNC1=O` [[^68Ga]Ga-NOTA-PRGD2, metal not drawn], the tissue uptake (as a rule, the share of the injected amount in each gram of the tissue) at 1 h in series [1] (setting [2]) worked out at 2.42 ± 0.56 %ID/g.
Take `N=C(N)NCCC[C@@H]1NC(=O)[C@H](CCCCNC(=O)CC[C@H](NC(=O)COCCOCCOCCNC(=S)Nc2ccc(C[C@H]3CN(CC(=O)O)CCN(CC(=O)O)CCN3CC(=O)O)cc2)C(=O)NCCCC[C@@H]2NC(=O)[C@@H](Cc3ccc(O)cc3)NC(=O)[C@H](CC(=O)O)NC(=O)CNC(=O)[C@H](CCCNC(=N)N)NC2=O)NC(=O)[C@@H](Cc2ccc(O)cc2)NC(=O)[C@H](CC(=O)O)NC(=O)CNC1=O` [[^18F]AlF-NOTA-PRGD2] [listing 1 of 2 here]: in the series with U87MG tumor-bearing mice, the “Volume of Distribution (VT), Kidneys” value turned out to be 5.24±0.24; the “Volume of Distribution (VT), Liver” value is recorded as 1.23±0.085; the “Volume of Distribution (VT), Muscle” value came out at 0.53±0.086; the “Volume of Distribution (VT), Tumor” value turned out to be 2.65±0.34.
On to `N=C(N)NCCC[C@@H]1NC(=O)[C@H](CCCCNC(=O)CC[C@H](NC(=O)COCCOCCOCCNC(=S)Nc2ccc(C[C@H]3CN(CC(=O)O)CCN(CC(=O)O)CCN3CC(=O)O)cc2)C(=O)NCCCC[C@@H]2NC(=O)[C@@H](Cc3ccc(O)cc3)NC(=O)[C@H](CC(=O)O)NC(=O)CNC(=O)[C@H](CCCNC(=N)N)NC2=O)NC(=O)[C@@H](Cc2ccc(O)cc2)NC(=O)[C@H](CC(=O)O)NC(=O)CNC1=O` [[^18F]AlF-NOTA-PRGD2] [listing 2 of 2 here], for which the tissue uptake at 1 h in series [1] (setting [3]) turned out to be 4.67 ± 1.08 %ID/g; in series [1] (setting [4]) it was 1.21 ± 0.54 %ID/g; in series [1] (setting [5]), 0.53 ± 0.11 %ID/g.
As to `CC(F)C(=O)NCCOCCOCCOCC(=O)N[C@@H](CCC(=O)NCCCC[C@@H]1NC(=O)[C@@H](Cc2ccc(O)cc2)NC(=O)[C@H](CC(=O)O)NC(=O)CNC(=O)[C@H](CCCNC(=N)N)NC1=O)C(=O)NCCCC[C@@H]1NC(=O)[C@@H](Cc2ccc(O)cc2)NC(=O)[C@H](CC(=O)O)NC(=O)CNC(=O)[C@H](CCCNC(=N)N)NC1=O` (some centres unmarked) [[^18F]FPPRGD2, reference compound], in the series on U87MG tumor-bearing mice, the “Volume of Distribution (VT), Kidneys” value was 4.10±0.27; the “Volume of Distribution (VT), Liver” value came out at 0.97±0.14; the “Volume of Distribution (VT), Muscle” value came out at 0.44±0.071; the “Volume of Distribution (VT), Tumor” value was 2.35±0.22. In series [1] (setting [3]), the tissue uptake at 1 h turned out to be 2.78 ± 0.58 %ID/g. In addition, the tissue uptake at 1 h in series [1] (setting [4]) was 1.1 ± 0.18 %ID/g. Moreover, the tissue uptake at 1 h in series [1] (setting [5]) amounted to 0.36 ± 0.089 %ID/g. Besides, the tissue uptake at 1 h in series [1] (setting [2]) came out at 2.91 ± 0.35 %ID/g.
